ChEMBL document CHEMBL1201862, “PubChem BioAssay data set” (2004)
Calls of active or inactive are those of the source.

Legend:
[1] = target: Glycogen synthase kinase-3 alpha (Homo sapiens, UniProt P49840); test: human GSK3 alpha kinase inhibition, dose response, selectivity assay for GSK3beta inhibitor project, biochemical, microfluidics, dry powder samples, set 2 (AID 623978); format: functional
[2] = target: Glycogen synthase kinase-3 beta (Homo sapiens, UniProt P49841); test: GSK3beta kinase inhibitors, dose response, biochemical, microfluidics, dry powder samples, set 2 (AID 623989); format: functional
[3] = Vero cell cytotoxicity, dose response, cytotoxicity control for M. tuberculosis growth inhibitor project, Vero cells, purified and synthesized compounds, set 4 (AID 504854); format: functional; settings: Mycobacterium tuberculosis
[4] = A Cell Based Secondary Assay to Explore Cytotoxicity in HepG2 Cells of Compounds that Modulate Mycobacterium tuberculosis in Media Containing Glycerol versus Media without Glycerol (2).; format: functional
[5] = HepG2 cell cytotoxicity, dose response, cytotoxicity control, set 3 (AID 504853); format: functional; settings: Mycobacterium tuberculosis
[6] = A Cell Based Secondary Assay to Explore Cytotoxicity in THP-1 Cells of Compounds that Modulate Mycobacterium tuberculosis in Media Containing Glycerol versus Media without Glycerol (2).; format: functional
[7] = THP-1 cell cytotoxicity, dose response, cytotoxicity control, set 3 (AID 504852); format: functional; settings: Mycobacterium tuberculosis
[8] = Vero cell cytotoxicity, cytotoxicity control for M. tuberculosis inhibitor project, purified and synthesized samples, set 3 (AID 504684); format: functional
[9] = THP-1 cell cytotoxicity, cytotoxicity control, set 4 (AID 504911); format: functional; settings: Mycobacterium tuberculosis
[10] = Vero cell cytotoxicity, dose response, cytotoxicity control for M. tuberculosis growth inhibitor project, Vero cells, purified and synthesized compounds, set 5 (AID 504909); format: functional; settings: Mycobacterium tuberculosis
Prothrombin = Prothrombin (Bos taurus, UniProt P00735); test: thrombin inhibition, dose response, biochemical, fluorescence polarization, uHTS hits (AID 602369); format: functional
[11] = target: Serine/threonine-protein phosphatase PP1-alpha catalytic subunit (Homo sapiens, UniProt P62136); test: PP1 phosphatase inhibitors, dose response, biochemical, fluorescence (AID 2403);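 further: phosphatase turnover of OMFP into fluorescent 3-O-methylfluorescein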
X-box-binding protein 1 = X-box-binding protein 1 (Homo sapiens, UniProt P17861); format: functional, Cricetulus griseus;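 further: confirmatory dose-response counter-screen serving a CHOP assay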
[12] = target: 26S proteasome non-ATPase regulatory subunit 14 (Homo sapiens, UniProt O00487); test: inhibition of proteasome subunit RPN11 – biochemical, fluorescence polarization, uHTS hits, confirmation (AID 602368); format: functional
[13] = target: 72 kDa type IV collagenase (Homo sapiens, UniProt P08253); test: Dose Response validation of uHTS RPN11 inhibitor hits using a MMP-2 Fluorescence assay.; format: functional
[14] = target: Serine/threonine-protein phosphatase (Homo sapiens, UniProt Q9BPW0); test: Counterscreen for inhibitors of PP1: fluorescence-based biochemical high throughput dose response assay to identify inhibitors of Protein Phosphatase 5 (PP5). [Related pubchem assays: 2034 (Summary (PP5 inhibitors)), 1987 (PP5 inhibitors in singlate), 2235 (PP1 inhibitors in singlate)]
[15] = target: Cyclin-dependent kinase 1 (Homo sapiens, UniProt P06493); format: functional;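 further: Kinome-wide panel profiling, with the target listed as panel member CDC2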
[16] = target: RAC-gamma serine/threonine-protein kinase (Homo sapiens, UniProt Q9Y243); format: functional
[17] = target: Dual specificity tyrosine-phosphorylation-regulated kinase 1A (Homo sapiens, UniProt Q13627); format: functional;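 further: measured against DYRK1A as one member of a broad kinome profiling panel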
LIM domain kinase 1 = LIM domain kinase 1 (Homo sapiens, UniProt P53667); test: Navigating the Kinome. Panel member name: LIMK1; format: functional
[18] = target: Rho-associated protein kinase 1 (Homo sapiens, UniProt Q13464); format: functional;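 further: measured within a broad kinome-wide panel profiling many kinases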
[19] = target: Serine/threonine-protein kinase D2 (Homo sapiens, UniProt Q9BZL6); format: functional;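 further: measured against PRKD2 as one member of a kinome-wide kinase profiling panel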
[20] = target: Serine/threonine-protein kinase pim-1 (Homo sapiens, UniProt P11309); format: functional
[21] = target: Mitogen-activated protein kinase 9 (Homo sapiens, UniProt P45984); format: functional;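 further: value from a kinome panel profiling assay, MAPK9 panel entry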
[22] = target: Serine/threonine-protein kinase PAK 1 (Homo sapiens, UniProt Q13153); format: functional
[23] = target: Serine/threonine-protein kinase MRCK alpha (Homo sapiens, UniProt Q5VT25); format: functional
[24] = target: T1, Serine/threonine-protein kinase Nek2 (Homo sapiens, UniProt P51955); format: functional
T1 sequence (P51955 whole entry): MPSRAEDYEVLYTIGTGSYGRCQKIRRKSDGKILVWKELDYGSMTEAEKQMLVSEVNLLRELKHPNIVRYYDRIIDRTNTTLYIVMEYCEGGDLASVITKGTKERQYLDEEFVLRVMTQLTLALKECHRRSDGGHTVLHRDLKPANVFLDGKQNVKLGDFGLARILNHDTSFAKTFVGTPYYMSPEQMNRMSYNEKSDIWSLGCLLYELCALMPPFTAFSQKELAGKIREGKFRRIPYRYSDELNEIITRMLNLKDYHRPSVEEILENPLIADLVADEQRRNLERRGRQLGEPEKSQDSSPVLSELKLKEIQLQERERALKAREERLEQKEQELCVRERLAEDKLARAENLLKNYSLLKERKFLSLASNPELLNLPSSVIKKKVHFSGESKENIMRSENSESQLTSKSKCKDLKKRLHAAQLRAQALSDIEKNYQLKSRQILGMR

[25] = target: Cyclin-dependent kinase 5 (Homo sapiens, UniProt Q00535); format: functional;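 further: CDK5 measured as one member of a kinase profiling panel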
[26] = target: Interleukin-1 receptor-associated kinase 4 (Homo sapiens, UniProt Q9NWZ3); format: functional
[27] = target: MAP kinase-activated protein kinase 3 (Homo sapiens, UniProt Q16644); format: functional;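 further: value comes from a kinome-wide profiling panel in which MAPKAPK3 is one of the panel members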
[28] = target: T2, Alkaline phosphatase, tissue-nonspecific isozyme (Homo sapiens, UniProt P05186); test: TNAP enzyme inhibition by screening hits, dose response, selectivity assay for mouse IAP inhibitor project, biochemical, human TNAP, uHTS hits (AID 488906); format: functional
T2 sequence (P05186 whole entry): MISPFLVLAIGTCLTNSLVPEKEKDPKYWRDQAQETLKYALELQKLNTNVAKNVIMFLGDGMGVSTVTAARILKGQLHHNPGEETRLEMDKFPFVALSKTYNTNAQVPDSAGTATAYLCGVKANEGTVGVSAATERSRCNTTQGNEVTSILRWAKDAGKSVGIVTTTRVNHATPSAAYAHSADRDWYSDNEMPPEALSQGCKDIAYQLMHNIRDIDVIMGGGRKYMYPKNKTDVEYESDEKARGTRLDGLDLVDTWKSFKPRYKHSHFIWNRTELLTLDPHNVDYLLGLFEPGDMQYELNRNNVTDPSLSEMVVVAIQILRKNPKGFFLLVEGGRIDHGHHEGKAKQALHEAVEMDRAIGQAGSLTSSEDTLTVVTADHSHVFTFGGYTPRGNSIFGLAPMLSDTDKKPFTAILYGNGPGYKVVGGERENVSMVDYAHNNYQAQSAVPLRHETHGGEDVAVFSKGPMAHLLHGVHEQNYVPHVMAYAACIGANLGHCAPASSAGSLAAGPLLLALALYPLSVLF

[29] = target: Intestinal-type alkaline phosphatase (Mus musculus, UniProt P24822); test: PubChem AID 488785; format: functional
[30] = target: Intestinal-type alkaline phosphatase (Homo sapiens, UniProt P09923); test: inhibition of human intestinal alkaline phosphatase – biochemical, dose response (AID 488876); format: functional
Beta Lactamase = Beta Lactamase (Pseudomonas aeruginosa, UniProt Q932Y6); test: beta-lactamase reporter inhibitor potency, dose response, artefact control for TLR9-MyD88 binding inhibitor project, BLA reporter cells, FRET fluorescence (AID 588341); format: cell-based;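 further: cell based assay in CHO-K1 cells stably expressing beta-lactamase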
CHO = test: cytotoxicity in TLR9-MyD88 CHO cells, dose response, cytotoxicity control for TLR9-MyD88 binding inhibitor project, cell-based, luminescence (AID 588339); format: functional, hamster; settings: Cricetulus griseus;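 further: CHO cells stably coexpressing TLR9 and MyD88 fusions from primary screen; compound exposure lasted 48 hours before viability readout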
[31] = target: Ribosomal protein S6 kinase alpha-3 (Homo sapiens, UniProt P51812); format: functional;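 further: measured within a kinome-wide profiling panel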
[32] = target: Casein kinase II subunit alpha (Homo sapiens, UniProt P68400); format: functional
[33] = target: Serine/threonine-protein kinase PLK3 (Homo sapiens, UniProt Q9H4B4); format: functional
[34] = target: MAP kinase-activated protein kinase 2 (Homo sapiens, UniProt P49137); format: functional;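 further: measured as one member of a kinome-wide kinase panel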
[35] = target: Serine/threonine-protein kinase Chk2 (Homo sapiens, UniProt O96017); format: functional;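 further: CHEK2 entry within a kinome-wide screening panel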
[36] = target: Protein kinase C delta type (Homo sapiens, UniProt Q05655); format: functional
[37] = target: cGMP-dependent protein kinase 1 (Homo sapiens, UniProt Q13976); format: functional;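 further: value from a kinome panel screen with PRKG1 as the panel member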
[38] = target: Receptor tyrosine-protein kinase erbB-4 (Homo sapiens, UniProt Q15303); format: functional;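 further: ERBB4 member of a kinome-wide kinase profiling panel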
[39] = target: Ribosomal protein S6 kinase beta-1 (Homo sapiens, UniProt P23443); format: functional;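 further: measured as one member of a kinome-wide profiling panel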
[40] = target: Calcium/calmodulin-dependent protein kinase type II subunit gamma (Homo sapiens, UniProt Q13555); format: functional
[41] = target: Protein-tyrosine kinase 2-beta (Homo sapiens, UniProt Q14289); format: functional
[42] = target: Tyrosine-protein kinase ABL1 (Homo sapiens, UniProt P00519); format: functional
[43] = target: Fibroblast growth factor receptor 3 (Homo sapiens, UniProt P22607); format: functional
[44] = target: Homeodomain-interacting protein kinase 2 (Homo sapiens, UniProt Q9H2X6); format: functional;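 further: measured within a kinome-wide kinase profiling panel, HIPK2 being one panel member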
[45] = target: Casein kinase I isoform alpha (Homo sapiens, UniProt P48729); format: functional
[46] = target: Protein-tyrosine kinase 6 (Homo sapiens, UniProt Q13882); format: functional
[47] = target: Proto-oncogene tyrosine-protein kinase ROS (Homo sapiens, UniProt P08922); format: functional;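 further: ROS1 tested as one member of a kinome-wide kinase panel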
[48] = target: Mitogen-activated protein kinase 8 (Homo sapiens, UniProt P45983); format: functional;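 further: value comes from one member of a kinome-wide kinase profiling panel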
[49] = target: Protein kinase C iota type (Homo sapiens, UniProt P41743); format: functional;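 further: measured within a kinome-wide kinase panel, PRKCI as panel member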
[50] = target: Mitogen-activated protein kinase 12 (Homo sapiens, UniProt P53778); format: functional;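 further: measured as one member of a kinome-wide kinase profiling panel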

Serine/threonine-protein kinase pim-1, sequence (P11309 whole entry): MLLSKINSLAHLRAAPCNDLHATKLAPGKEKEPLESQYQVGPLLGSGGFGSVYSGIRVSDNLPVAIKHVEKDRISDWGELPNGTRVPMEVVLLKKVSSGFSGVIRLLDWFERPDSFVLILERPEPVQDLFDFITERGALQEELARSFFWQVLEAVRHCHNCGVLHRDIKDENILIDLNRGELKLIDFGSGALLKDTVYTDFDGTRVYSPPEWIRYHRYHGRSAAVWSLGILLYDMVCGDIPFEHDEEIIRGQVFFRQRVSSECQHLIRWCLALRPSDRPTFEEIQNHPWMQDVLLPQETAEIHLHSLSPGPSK
Cyclin-dependent kinase 5, sequence (Q00535 whole entry): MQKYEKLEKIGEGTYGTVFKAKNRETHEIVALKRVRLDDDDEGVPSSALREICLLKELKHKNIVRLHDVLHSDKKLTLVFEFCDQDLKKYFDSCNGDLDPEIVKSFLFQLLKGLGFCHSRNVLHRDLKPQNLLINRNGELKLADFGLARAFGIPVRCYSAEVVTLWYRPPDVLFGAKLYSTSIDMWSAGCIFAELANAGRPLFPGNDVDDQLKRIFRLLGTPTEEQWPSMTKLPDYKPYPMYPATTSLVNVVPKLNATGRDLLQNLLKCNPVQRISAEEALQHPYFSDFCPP
Intestinal-type alkaline phosphatase (Homo sapiens, UniProt P09923), sequence (P09923 whole entry): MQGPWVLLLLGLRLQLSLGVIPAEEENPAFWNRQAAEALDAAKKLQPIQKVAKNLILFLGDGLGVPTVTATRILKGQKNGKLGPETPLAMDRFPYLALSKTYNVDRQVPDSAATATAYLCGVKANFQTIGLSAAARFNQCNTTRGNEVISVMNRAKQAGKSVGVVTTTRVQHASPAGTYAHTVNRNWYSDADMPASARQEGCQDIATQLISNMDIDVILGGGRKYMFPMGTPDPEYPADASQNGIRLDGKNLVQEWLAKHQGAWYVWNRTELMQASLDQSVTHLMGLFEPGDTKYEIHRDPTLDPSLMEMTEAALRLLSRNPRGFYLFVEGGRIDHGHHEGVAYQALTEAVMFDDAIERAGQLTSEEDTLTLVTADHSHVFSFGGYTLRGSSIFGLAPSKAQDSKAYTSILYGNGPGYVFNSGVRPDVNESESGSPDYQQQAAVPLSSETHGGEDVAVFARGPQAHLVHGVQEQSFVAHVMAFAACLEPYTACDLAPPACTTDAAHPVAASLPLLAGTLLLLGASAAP
Protein kinase C iota type, sequence (P41743 whole entry): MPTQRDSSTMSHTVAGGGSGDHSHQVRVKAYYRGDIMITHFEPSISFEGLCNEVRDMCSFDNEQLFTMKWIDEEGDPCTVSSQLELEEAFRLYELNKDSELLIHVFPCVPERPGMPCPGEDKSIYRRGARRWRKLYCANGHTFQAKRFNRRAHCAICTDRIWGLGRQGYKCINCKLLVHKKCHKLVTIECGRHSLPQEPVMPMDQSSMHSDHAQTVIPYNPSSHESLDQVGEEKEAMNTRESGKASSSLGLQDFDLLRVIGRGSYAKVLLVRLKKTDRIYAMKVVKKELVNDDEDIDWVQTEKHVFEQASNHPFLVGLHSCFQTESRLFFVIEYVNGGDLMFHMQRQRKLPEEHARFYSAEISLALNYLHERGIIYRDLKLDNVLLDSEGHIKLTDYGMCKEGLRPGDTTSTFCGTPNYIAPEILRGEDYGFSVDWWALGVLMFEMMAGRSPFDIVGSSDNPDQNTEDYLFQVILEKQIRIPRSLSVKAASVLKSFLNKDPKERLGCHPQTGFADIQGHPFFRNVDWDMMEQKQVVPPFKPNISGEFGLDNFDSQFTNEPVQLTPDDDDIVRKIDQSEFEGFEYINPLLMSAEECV
Rho-associated protein kinase 1, sequence (Q13464 whole entry): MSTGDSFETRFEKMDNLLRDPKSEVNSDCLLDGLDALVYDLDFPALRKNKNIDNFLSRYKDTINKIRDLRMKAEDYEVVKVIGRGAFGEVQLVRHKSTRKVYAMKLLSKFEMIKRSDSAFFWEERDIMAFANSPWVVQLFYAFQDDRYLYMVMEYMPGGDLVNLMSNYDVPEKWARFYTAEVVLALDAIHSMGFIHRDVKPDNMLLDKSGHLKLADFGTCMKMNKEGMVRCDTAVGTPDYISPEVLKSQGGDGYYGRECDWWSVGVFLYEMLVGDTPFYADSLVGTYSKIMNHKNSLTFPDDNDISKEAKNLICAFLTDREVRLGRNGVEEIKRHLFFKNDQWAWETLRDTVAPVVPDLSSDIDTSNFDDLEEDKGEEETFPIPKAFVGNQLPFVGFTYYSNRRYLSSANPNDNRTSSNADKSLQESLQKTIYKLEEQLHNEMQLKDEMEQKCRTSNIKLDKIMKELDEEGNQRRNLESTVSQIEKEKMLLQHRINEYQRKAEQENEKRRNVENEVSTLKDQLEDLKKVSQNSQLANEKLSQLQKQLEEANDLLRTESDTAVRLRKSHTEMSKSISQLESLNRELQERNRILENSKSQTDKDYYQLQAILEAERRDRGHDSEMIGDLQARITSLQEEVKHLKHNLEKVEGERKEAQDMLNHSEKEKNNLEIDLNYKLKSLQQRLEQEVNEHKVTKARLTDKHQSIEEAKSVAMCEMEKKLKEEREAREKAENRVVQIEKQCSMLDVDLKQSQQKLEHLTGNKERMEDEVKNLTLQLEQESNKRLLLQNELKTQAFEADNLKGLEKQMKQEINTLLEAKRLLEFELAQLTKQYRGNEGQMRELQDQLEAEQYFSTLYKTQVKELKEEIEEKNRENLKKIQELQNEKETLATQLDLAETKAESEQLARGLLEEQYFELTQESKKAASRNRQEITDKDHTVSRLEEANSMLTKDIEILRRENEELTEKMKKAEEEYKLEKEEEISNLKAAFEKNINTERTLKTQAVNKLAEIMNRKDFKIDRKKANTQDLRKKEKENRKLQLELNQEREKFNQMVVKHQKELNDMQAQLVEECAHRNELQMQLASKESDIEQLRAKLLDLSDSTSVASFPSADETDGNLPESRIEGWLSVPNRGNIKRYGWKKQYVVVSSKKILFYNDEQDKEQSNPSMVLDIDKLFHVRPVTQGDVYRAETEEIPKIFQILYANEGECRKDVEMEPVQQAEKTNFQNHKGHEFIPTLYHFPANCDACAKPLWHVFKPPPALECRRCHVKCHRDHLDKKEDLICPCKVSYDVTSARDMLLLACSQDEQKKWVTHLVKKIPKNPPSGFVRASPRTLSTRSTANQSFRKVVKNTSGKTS
Serine/threonine-protein kinase Chk2, sequence (O96017 whole entry): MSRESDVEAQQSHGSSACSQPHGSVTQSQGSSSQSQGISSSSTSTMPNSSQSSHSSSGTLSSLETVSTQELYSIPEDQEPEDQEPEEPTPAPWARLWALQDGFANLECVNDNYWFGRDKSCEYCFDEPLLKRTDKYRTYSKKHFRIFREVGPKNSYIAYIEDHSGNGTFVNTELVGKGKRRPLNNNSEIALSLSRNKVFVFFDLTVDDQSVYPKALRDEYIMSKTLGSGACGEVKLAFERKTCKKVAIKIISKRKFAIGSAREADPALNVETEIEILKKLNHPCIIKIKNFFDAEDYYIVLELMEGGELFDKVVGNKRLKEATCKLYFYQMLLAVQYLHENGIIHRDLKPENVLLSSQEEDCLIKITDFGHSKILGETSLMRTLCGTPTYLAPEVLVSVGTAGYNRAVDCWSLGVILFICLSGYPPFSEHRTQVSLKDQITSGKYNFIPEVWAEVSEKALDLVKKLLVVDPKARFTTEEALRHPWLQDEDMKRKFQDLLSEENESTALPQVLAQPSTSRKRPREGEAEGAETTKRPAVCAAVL
Tyrosine-protein kinase ABL1, sequence (P00519 whole entry): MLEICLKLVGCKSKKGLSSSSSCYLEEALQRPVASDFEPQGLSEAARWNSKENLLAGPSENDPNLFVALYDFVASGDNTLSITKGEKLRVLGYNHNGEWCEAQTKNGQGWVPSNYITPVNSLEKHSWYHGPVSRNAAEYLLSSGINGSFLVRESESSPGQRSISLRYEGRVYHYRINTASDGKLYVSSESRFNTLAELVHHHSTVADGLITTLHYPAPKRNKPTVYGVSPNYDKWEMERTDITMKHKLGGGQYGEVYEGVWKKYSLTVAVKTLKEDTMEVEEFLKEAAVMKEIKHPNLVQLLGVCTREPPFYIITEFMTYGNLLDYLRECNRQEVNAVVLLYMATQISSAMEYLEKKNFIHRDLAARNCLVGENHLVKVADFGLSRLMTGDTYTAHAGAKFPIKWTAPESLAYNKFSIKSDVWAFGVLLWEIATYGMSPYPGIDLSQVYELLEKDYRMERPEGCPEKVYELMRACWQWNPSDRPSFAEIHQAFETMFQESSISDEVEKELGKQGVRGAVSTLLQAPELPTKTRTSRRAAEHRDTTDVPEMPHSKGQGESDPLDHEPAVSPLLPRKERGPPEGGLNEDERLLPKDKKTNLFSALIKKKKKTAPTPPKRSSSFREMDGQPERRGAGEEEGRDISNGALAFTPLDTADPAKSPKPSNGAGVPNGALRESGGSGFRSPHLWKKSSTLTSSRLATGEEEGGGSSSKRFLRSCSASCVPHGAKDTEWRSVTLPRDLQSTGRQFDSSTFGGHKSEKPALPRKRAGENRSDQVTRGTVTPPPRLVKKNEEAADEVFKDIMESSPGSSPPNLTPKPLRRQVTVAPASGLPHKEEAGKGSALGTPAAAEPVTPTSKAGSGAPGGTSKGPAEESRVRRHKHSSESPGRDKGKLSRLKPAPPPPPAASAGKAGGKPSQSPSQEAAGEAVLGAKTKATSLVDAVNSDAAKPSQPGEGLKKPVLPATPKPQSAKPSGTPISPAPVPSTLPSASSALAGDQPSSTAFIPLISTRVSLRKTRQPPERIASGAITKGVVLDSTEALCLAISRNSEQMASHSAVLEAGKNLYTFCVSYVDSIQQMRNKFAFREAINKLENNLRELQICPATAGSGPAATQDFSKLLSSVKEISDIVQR
Beta Lactamase, sequence (Q932Y6 whole entry, the tested form may be a part): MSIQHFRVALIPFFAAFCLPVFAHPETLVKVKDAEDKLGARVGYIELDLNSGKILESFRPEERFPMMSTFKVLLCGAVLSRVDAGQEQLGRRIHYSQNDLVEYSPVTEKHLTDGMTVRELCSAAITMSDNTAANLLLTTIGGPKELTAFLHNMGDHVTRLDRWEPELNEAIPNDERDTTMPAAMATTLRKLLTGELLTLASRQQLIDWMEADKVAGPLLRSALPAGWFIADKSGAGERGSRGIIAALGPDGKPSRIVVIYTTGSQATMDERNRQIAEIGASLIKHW

Nc1nc(NCC2CCCO2)nc(Nc2ccc(F)cc2)c1[N+](=O)[O-] (stereo unspecified)
active: AC50 [1] 2.42 µM | AC50 [2] 0.802 µM

Cc1cc(C)n2nc(N)c(/N=N/c3ccccc3)c2n1
active: CC50 [3] 93 µM | CC50 [4] > 50 µM | CC50 [5] > 50 µM | CC50 [6] > 100 µM | CC50 [7] > 100 µM | CC50 [8] 83.7 µM | CC50 [9] > 99.5 µM | CC50 [10] > 100 µM

O=C(N/N=C/c1ccccn1)c1cc(-c2ccc3ccccc3c2)[nH]n1
> 67 µM (not active): IC50 [14]
10 µM: Absolute IC50 (XBP1) (X-box-binding protein 1)
inactive: IC50 [13] > 100 µM
active: IC50 (Prothrombin) 28.7 µM | IC50 [11] 6.53 µM | IC50 [12] 13 µM

O=C(Nc1ccc(CO)cc1)c1cnn2c(-c3ccccc3)ccnc12
active: Ki [17] 1.26 µM | Ki [21] 0.794 µM | Ki [26] 2.51 µM
inactive: Ki [15] > 7.94 µM | Ki [16] > 10 µM | Ki (LIM domain kinase 1) > 10 µM | Ki [18] > 10 µM | Ki [19] > 10 µM | Ki [20] > 10 µM | Ki [22] > 10 µM | Ki [23] > 10 µM | Ki [24] > 10 µM | Ki [25] > 10 µM | Ki [27] > 10 µM

COc1cc(/C=C/C(O)=C/C(=O)/C=C/c2ccc(O)cc2)ccc1O [DEMETHOXYCURCUMIN]
inactive: IC50 [28] > 100 µM | IC50 [30] > 100 µM | IC50 (CHO) 39.3 µM
active: IC50 [29] 8.38 µM | IC50 (Beta Lactamase) 8.09 µM

Nc1ccc2[nH]c(=O)cnc2c1
active: Ki [31] 7.94 µM | Ki [32] 12.6 µM | Ki [33] 6.31 µM | Ki [34] 10 µM

CCC1C(=O)N(C)c2cnc(Nc3ccc(C(=O)NC4CCN(C)CC4)cc3OC)nc2N1C1CCCC1 (stereo unspecified)
active: Ki [35] 1.58 µM | Ki [40] 0.2 µM | Ki [41] 0.631 µM
inactive: Ki [36] > 6.31 µM | Ki [37] > 2 µM | Ki [38] > 3.98 µM | Ki [39] > 6.31 µM | Ki [20] > 10 µM | Ki [42] > 0.631 µM | Ki [43] > 2 µM | Ki [44] > 3.16 µM | Ki [45] > 6.31 µM | Ki [46] > 2.51 µM | Ki [47] > 2 µM | Ki [48] > 3.16 µM | Ki [49] > 5.01 µM | Ki [50] > 6.31 µM
